Legend:
lysosomes = test: Colocalization with Lysotracker Red by fluorescence microscopy; format: cell-based; conditions: live THP-1 cells
Protocol: (§1) A. LTI studies: Aliquots of THP-1 cells (Cell densities were 1×10^6 cells per mL) were exposed to either 100 nM InstantLyso LLT-1 in RPMI 1640 medium with 10% FCS at 37° C., 5% CO2, both InstantLyso LLT-1 and 100 nM Lysotracker Red (Molecular Probes, Eugene Oreg.), or both InstantLyso LLT-1 and at a concentration of 75 nM. Mitotracker Red (Molecular Probes). In each case, medium is first pipetted off cells, then warmed medium containing dyes is added. The cell suspension is incubated for 30 minutes at 37° C. and examined by microscopy.
Colocalization of InstantLyso LLT-1 with Lysotracker red were performed under the following conditions: Live THP-1 Leukemic monocytes were grown in RPMI 1640 medium at 37C. and 5% CO2 for 5 days. 2 mL of cells were allowed to adhere to a Biocoat (polylysine coated) glass bottomed cell culture plate for 30 minutes at 37C. The old medium was removed and 2 mLs of 37 C fresh media containing 1 00 nM InstantLyso LLT-1 (from 10 μM DMSO stock) and 100 nM Lysotracker Red (from 1 mM DMSO stock) was added. Cells were incubated at 37C for 30 minutes. And visualized with an inverted epifluorescence microscope at 600× using a blue/purple (450/50 ex and 510/50 em with D480 mirror) cube for InstantLyso LLT-1 and a green (560/50 ex and 646/40 em with D595 mirror). Exposure was automatic. Temperature was ambient. […]

THP-1 cells [1] = conditions: FIG. 24, concentration not given
mitochondria = test: Colocalization with Mitotracker Red by fluorescence microscopy; format: cell-based
Protocol: as §1
(§2) B. InstantLipo Sep-1 studies: Aliquots of either THP-1 cells or adherent human fibroblasts were exposed to either 200 nM InstantLipo Sep-1in RPMI 1640 medium with 10% FCS at 37 C, 5% CO2, both InstantLipo Sep-1and Vybrant lipid raft kit (Molecular Probes, used according to the manufacturer's instructions), both InstantLipo Sep-1and Mitotracker Red (Molecular Probes, used according to the manufacturer's instructions), or both InstantLipo Sep-1and Lysotracker Red. Cells were incubated at 37° C. for at least 20 minutes. […] Some of the punctate structures moved rapidly when observed by confocal microscopy in living cells. Conditions for colocalization are as follows: Live THP-1 Leukemic monocytes were grown in RPMI 1640 medium at 37 C and 5% CO2 for 5 days. […]

cholesterol-rich domains = test: Staining of fibroblasts treated with cholesterol transport inhibitor U18666A; format: cell-based, human; conditions: foreskin fibroblasts, 3 μg/mL U18666A overnight, 150 nM dye, 30 minutes
Protocol: Similarly, 3 μg/mL from H20 stock of aminoesterol U18666A (Calbiochem)) is often used with fibroblasts to inhibit intracellular cholesterol transport and leads to accumulation of cholesterol in nuclear regions (C. F. Roff, E. Goldin, M. E. Comly, A. Cooney, A. Brown, M. T. Vanier, S. P. Miller, R. O. Brady and P. G. Pentchev, Dev Neurosci 13 (1991) 315-9). Foreskin fibroblasts were grown on coverslips for 1 day in EMEM. Medium was removed and replaced with 2 mL fresh EMEM to ensure consistent treatment as cells that were treated with U18666A. Cells were incubated at 37° C. and 5% CO2 overnight. Medium was removed and replaced with 2 mL EMEM containing 200 nM InstantLipo Sep-1. Cells were then incubated at 37° C. and 5% CO2 for 30 minutes to allow dye to load. Cells were imaged using an epifluorescence microscope at 1000× magnification while excited with a purple cube.
Foreskin fibroblasts were grown on coverslips for 3 days in EMEM. Medium was removed and replaced with 2 mL EMEM containing 3μg/mL U18666A. Cells were incubated at 37° C. and 5% CO2 overnight. Medium was removed and replaced with 2 mL EMEM containing 150 nM InstantGolgi McN-1. Cells were then incubated at 37° C. and 5% CO2 for 30 minutes to allow dye to load. […] This is consistent with the staining of more numerous and pathological cholesterol-rich domains and vesicles. […]

THP-1 cells [2] = test: Staining pattern in live THP-1 cells; format: cell-based; conditions: THP-1 monocytic cells, 100 nM dye, 30 minutes
Protocol: as §1, §2

Row | SMILES | colocalization with lysosomes (Lysotracker Red) (lysosomes; 150 nM dye + 75 nM Lysotracker Red) | cytotoxicity / viability (Trypan blue) (THP-1 cells [1]) | colocalization with mitochondria (MitoTracker Red) (mitochondria; live THP-1 cells, 150 nM dye + 50 nM MitoTracker Red) | staining change after U18666A (cholesterol-rich domains) | co-localization with Lysotracker Red (lysosomes; 100 nM dye + 100 nM Lysotracker Red, 30 minutes) | co-localization with Mitotracker Red (mitochondria; THP-1 cells, 100 nM dye + 75 nM Mitotracker Red, 30 minutes) | staining pattern (THP-1 cells [2])
1 | CCCCCCN1C(=O)c2cccc3c(NCCNS(=O)(=O)c4ccc(C)cc4)ccc(c23)C1=O [InstantGolgi McN-1, N-hexyl-4-[2-(4-toluensulfonyl)aminoethyl]amino-1,8-naphthalimide] | limited colocalization with lysosomes and mitochondria | no significant cytotoxicity | limited colocalization with lysosomes and mitochondria | more punctate bright spots in cells after inhibition | – | – | –
2 | CCCCCCN1C(=O)c2cccc3c(NCCN)ccc(c23)C1=O [InstantLyso LLT-1, 6-(2-aminoethyl)amino-2-hexyl-1H-benz[de]isoquinoline-1,3-(2H)-dione] | – | – | – | – | positive co-localization | failed to exhibit such co-localization | staining in punctate structures

Source: US7528144B2, “Molecules and methods for fluorescence microscopy” (WiSys Technology Foundation, Inc., priority 2005, dated 2009)
